This is an account of results in publication PMC6826616, “Topical 2′-Hydroxyflavanone for Cutaneous Melanoma” (Cancers, 2019).

Common to all, as to assay type: cell-based
One assay relates to B16-F0 cells. As to the kind of experiment: MTT cytotoxicity assay, B16-F0. To be noted: Mus musculus, B16F0; Table 1, agent alone; read-out: IC50. The text has this: (§1) We studied the growth-inhibitory effects of 2HF on the B16-F0 and B16-F10 murine melanoma cell lines as well as on the SK-MEL-24 human melanoma cell line. B16-F10 and SK-MEL-24 have been shown in previous studies to be highly resistant to treatment and much more invasive than B16-F0 [32]. […] The absorption value measured upon reduction of the MTT dye by functional mitochondria is an indirect measure of cell number that cannot distinguish inhibited cell proliferation from apoptotic or necrotic cell death. By counting viable (trypan-blue dye-excluding) cells using a hemacytometer, we verified that 2HF did indeed cause cell death.
(§2) Figure 1 Mouse and human melanoma cell survival following 2′-hydroxyflavanone (2HF) treatment.
(§3) The IC50 of 2HF on B16-F0, B16-F10, and SK-MEL-24 cells was determined by MTT cytotoxicity assay. Cells were harvested and Trypan Blue dye exclusion test was used to determine the number of viable cells present in a cell suspension using a hemocytometer. The cell suspension was diluted to 5 × 10^4 cells/mL with Dulbecco’s Modified Eagle’s Medium (DMEM) complete medium and 5000 cells/well were plated in 96-well plates. After 24 h incubation at 37 °C, cells were treated with 2HF concentrations ranging from 0–200 µM (8 replicates per plate). After 48 or 72 h incubation, 40 µL of MTT (5 mg/mL) solution was added. After 4 h incubation, the plate was centrifuged at 700× g for 5 min and medium was aspirated completely. Then, 50 µL DMSO was added to each well to dissolve the purple precipitate on the rocking platform for about 15 min. The absorbance was then measured at 490 nm using a 96-well microplate reader (Spectramax Plus, Molecular Devices, Inc, San Jose, CA, USA).
(Tetrazolium assays rely on reduction of a dye to a coloured formazan, in cell work by metabolically active cells.)

Another assay deals with B16-F10 cells. The assay is described as follows: MTT cytotoxicity assay, B16-F10. Particulars: Mus musculus, Table 1, agent alone, read-out: IC50.
Description: as §1, §2, §3

A further assay relates to SK-MEL-24 cells. As to the kind of experiment: MTT cytotoxicity assay, SK-MEL-24. To be noted: Homo sapiens, Table 1, agent alone, read-out: IC50.
Description: as §1, §2, §3

As a reminder, the IC50 is the concentration that gives 50% inhibition. Turning to `COC1CCN(C(=O)c2cc(Cc3n[nH]c(=O)c4ccccc34)ccc2F)CC1` [PARP1i, AZD 2461, reference compound], the values for the IC50 in the assay with B16-F0 cells, with B16-F10 cells and with SK-MEL-24 cells were 16.5 ± 4.86 µM, 29.9 ± 28.5 µM and 55 ± 23.9 µM, respectively.
